Data reported in PMC7730441, “Acetylcholinesterase and butyrylcholinesterase inhibitory activities of khellactone coumarin derivatives isolated from Peucedanum japonicum Thurnberg” (Scientific Reports, 2020).
In brackets after ≈: the same amount, converted by molar mass. Like-named read-outs stand apart in the source and are kept apart here.

What was measured:
[1] = biological target: T1, AChE (Type VI-S; from Electrophorus electricus) (Electrophorus electricus, UniProt O42275); test: biochemical; conditions: for remaining activity at 10 µM: read-out: Residual activity at 10 µM (%) AChE, inhibitor 10 µM; for SI = IC50 of AChE/ IC50 of BChE: selectivity index
T1 construct: AChE (Type VI-S; from Electrophorus electricus); purchased Sigma-Aldrich Type VI-S (catalogue number not given)
T1 sequence (O42275 24-633): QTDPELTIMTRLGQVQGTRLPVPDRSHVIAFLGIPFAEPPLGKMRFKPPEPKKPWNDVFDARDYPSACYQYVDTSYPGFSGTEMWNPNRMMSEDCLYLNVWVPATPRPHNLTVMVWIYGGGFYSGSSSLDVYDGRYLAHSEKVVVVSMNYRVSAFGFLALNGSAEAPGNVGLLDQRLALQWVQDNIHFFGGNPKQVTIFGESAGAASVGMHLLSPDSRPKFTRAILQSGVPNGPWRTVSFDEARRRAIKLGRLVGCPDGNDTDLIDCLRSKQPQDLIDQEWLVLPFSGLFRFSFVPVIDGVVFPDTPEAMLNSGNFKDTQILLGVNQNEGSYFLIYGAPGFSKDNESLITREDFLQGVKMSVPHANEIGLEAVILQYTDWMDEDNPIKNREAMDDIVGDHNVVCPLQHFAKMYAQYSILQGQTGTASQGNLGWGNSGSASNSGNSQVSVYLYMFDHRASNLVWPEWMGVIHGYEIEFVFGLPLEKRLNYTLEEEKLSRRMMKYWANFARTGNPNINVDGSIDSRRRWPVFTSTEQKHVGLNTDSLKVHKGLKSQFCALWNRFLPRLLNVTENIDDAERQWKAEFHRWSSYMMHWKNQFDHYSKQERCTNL
Protocol: (§1) AChE assays were performed as described by Ellman et al.[41] with slight modifications. […] DTNB was used for color development, caused by reaction between it and thiocholine (a product of AChE). For inhibitory assays, compounds were preincubated with AChE for 15 min prior to ATCI and DTNB addition. BChE activity was assayed using the same method, but BTCI was used instead of ATCI.
(§2) Inhibitions of the activities of AChE, BChE, MAO-A, and MAO-B by the 15 compounds were investigated at an inhibitor concentration of 10 µM. IC50 values were also determined. […] The inhibition types and Ki values were determined using Lineweaver–Burk Plots and secondary plots.

[2] = biological target: T2, BChE (from equine serum) (Equus caballus, UniProt P81908); test: biochemical; conditions: 15 min preincubation
T2 construct: BChE (from equine serum); purchased Sigma-Aldrich; host or cells: equine serum
T2 sequence (P81908 whole entry): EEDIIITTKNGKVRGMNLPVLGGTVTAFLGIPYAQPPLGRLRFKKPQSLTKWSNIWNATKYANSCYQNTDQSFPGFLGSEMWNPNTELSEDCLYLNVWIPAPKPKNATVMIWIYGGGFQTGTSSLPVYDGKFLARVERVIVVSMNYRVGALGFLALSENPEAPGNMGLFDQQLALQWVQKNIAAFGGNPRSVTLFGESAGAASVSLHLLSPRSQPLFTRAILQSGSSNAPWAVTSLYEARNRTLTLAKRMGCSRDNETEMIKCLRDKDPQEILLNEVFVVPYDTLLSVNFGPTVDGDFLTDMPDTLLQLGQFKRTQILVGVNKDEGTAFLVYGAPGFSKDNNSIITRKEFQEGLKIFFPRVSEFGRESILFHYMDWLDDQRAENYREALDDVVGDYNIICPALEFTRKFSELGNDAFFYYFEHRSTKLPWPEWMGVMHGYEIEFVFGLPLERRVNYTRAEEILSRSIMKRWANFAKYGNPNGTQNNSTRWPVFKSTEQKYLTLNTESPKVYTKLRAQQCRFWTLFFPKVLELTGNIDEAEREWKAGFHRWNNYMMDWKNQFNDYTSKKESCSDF
Protocol: as §1, §2

[3] = biological target: T3, recombinant human MAO-A (Homo sapiens, UniProt P21397); test: MAO-A inhibition assay (kynuramine); assay type: biochemical; conditions: for remaining activity at 10 µM: read-out: Residual activity at 10 µM (%) MAO-A
T3 construct: purchased Sigma-Aldrich
T3 sequence (P21397 1-527): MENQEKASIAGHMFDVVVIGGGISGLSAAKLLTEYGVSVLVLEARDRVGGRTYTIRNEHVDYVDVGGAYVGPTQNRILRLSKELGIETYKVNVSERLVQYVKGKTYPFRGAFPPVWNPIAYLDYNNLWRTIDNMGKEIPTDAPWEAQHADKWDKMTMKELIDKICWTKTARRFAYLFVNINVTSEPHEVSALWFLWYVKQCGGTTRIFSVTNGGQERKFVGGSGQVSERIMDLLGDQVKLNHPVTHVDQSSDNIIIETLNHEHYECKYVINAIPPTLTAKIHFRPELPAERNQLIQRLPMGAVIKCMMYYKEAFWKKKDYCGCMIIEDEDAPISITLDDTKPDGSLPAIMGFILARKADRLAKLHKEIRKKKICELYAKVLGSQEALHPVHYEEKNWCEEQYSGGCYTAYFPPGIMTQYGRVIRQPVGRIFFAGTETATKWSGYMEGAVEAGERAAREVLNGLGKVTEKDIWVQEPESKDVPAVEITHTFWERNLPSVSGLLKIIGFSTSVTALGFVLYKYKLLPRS
Protocol: as §1, §2

[4] = biological target: T4, recombinant human MAO-B (Homo sapiens, UniProt P27338); test: MAO-B inhibition assay (benzylamine); assay type: biochemical; conditions: for remaining activity at 10 µM: read-out: Residual activity at 10 µM (%) MAO-B
T4 construct: purchased Sigma-Aldrich
T4 sequence (P27338 1-520): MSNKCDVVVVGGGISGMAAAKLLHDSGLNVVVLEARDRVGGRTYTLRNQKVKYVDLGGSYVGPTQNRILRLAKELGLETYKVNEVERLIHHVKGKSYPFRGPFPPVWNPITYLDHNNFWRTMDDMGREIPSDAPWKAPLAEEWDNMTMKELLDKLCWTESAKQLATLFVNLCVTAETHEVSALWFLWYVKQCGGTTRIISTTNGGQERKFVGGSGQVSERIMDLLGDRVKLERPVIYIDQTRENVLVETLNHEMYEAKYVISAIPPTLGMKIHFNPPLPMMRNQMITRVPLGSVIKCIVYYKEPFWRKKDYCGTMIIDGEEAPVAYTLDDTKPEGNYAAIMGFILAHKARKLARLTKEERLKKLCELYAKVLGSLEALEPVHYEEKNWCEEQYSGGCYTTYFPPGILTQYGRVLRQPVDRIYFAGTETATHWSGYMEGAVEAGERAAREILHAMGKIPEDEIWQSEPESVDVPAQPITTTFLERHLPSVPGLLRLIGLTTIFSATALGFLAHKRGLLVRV
Protocol: as §1, §2

[5] = test system: AChE; conditions: cited from earlier work
[6] = test system: BChE; conditions: cited from earlier work
[7] = 15 min preincubation, read-out: IC50 (µM) AChE
[8] = flavonoids from Agrimonia pilosa
[9] = verbascosides from Harpagophytum procumbens

Row | Compound | IC50 [1, 7] | remaining activity at 10 µM ([1]; 15 min preincubation) | IC50 ([2]; read-out: IC50 (µM) BChE) | remaining activity at 10 µM ([3]; inhibitor 10 µM) | remaining activity at 10 µM ([4]; inhibitor 10 µM) | further results
1 | C/C=C(/C)C(=O)OC1c2c(ccc3ccc(=O)oc23)OC(C)(C)C1OC(=O)CC(C)C (stereo not drawn) [PJ11, 3′-isovaleryl-4′-angeloylkhellactone] | > 40 µM | 88.1 ± 1.35% | > 40 µM | 75.4 ± 0.3% | 89.1 ± 1.36% | 
3 | CC1=C2OCC(C)c3ccc(C)c(c32)C(=O)C1=O (stereo not drawn) [mansonone E] |  |  |  |  |  | IC50 ([5]; from Mansonia gagei): 23.5 µM
4 | CC(C)=CC(=O)O[C@@H]1c2c(ccc3ccc(=O)oc23)OC(C)(C)[C@@H]1OC(=O)CC(C)C [PJ9, 3′-isovaleryl-4′-senecioylkhellactone] | 36.1 ± 0.66 µM | 86.9 ± 9.92% | 12.5 ± 2.82 µM | 80.6 ± 5.02% | 75 ± 8.42% | SI = IC50 of AChE/ IC50 of BChE [1]: 2.89
5 | C[C@@H]1O[C@@H](O[C@@H]2[C@@H](O)[C@H](OCCc3ccc(O)c(O)c3)O[C@H](CO)[C@H]2O)[C@H](O)[C@H](O)[C@H]1O [decaffeoylverbascoside] |  |  |  |  |  | IC50 [5, 9]: 16.1 µM
6 | C[C@@H]1O[C@@H](O[C@@H]2[C@@H](O)[C@H](OCCc3ccc(O)c(O)c3)O[C@H](COC(=O)/C=C/c3ccc(O)c(O)c3)[C@H]2O)[C@H](O)[C@H](O)[C@H]1O [isoacteoside] |  |  |  |  |  | IC50 ([6]; from H. procumbens): 29.7 µM
7 | O=c1c(O)c(-c2ccc(O)cc2)oc2cc(O)cc(O)c12 [kaempferol] |  |  |  |  |  | IC50 ([6]; from Cleistocalyx operculatus): 62.5 µM
8 | CC(C)=CC(=O)O[C@@H]1[C@H](OC(=O)CC(C)C)c2c(ccc3ccc(=O)oc23)OC1(C)C [PJ8, 3′-senecioyl-4′-isovalerylkhellactone] | 31.6 ± 4.4 µM | 97 ± 1.4% | > 40 µM | 79.5 ± 2.05% | 68.5 ± 2.1% | SI = IC50 of AChE/ IC50 of BChE [1]: < 0.79
9 | C/C=C(/C)C(=O)O[C@@H]1[C@H](OC(=O)C=C(C)C)c2c(ccc3ccc(=O)oc23)OC1(C)C [PJ6, calipteryxin] | 25.6 ± 4.5 µM | 76.3 ± 6.46% | > 40 µM | 86.1 ± 1.93% | 63.1 ± 2.75% | SI = IC50 of AChE/ IC50 of BChE [1]: < 0.64
10 | O=C(/C=C/c1ccc(O)cc1)OC[C@H]1O[C@@H](Oc2c(-c3ccc(O)cc3)oc3cc(O)cc(O)c3c2=O)[C@H](O)[C@@H](O)[C@@H]1O [tiliroside] |  |  |  |  |  | IC50 [5, 8]: 23.5 µM
11 | COc1ccc2c(c1OC)CN1CCc3cc4c(cc3C1=C2)OCO4 [dihydroberberine] |  |  |  |  |  | IC50 [5]: 1.18 µM
12 | COc1ccc(CCCc2ccc(O)cc2)c(O)c1 [broussonin A] |  |  |  |  |  | IC50 ([6]; from Anemarrhena asphodeloidesa): 7.5 µM
13 | corenone B |  |  |  |  |  | IC50 ([6]; converted from μg/mL, from Niphogeton dissecta): 49.5 µM; IC50 BChE ([6]; from Niphogeton dissecta): 10.9 µg/mL
14 | CCC(C)C(=O)O[C@@H]1c2c(ccc3ccc(=O)oc23)OC(C)(C)[C@@H]1OC(C)=O (stereo partly drawn) [hyuganin C] |  |  |  |  |  | IC50 ([6]; from Mutellina purpurea): 38.9 µM
15 | C/C=C(/C)C(=O)O[C@@H]1c2c(ccc3ccc(=O)oc23)OC(C)(C)[C@@H]1OC(=O)/C(C)=C\C [PJ7, anomalin] |  | 75.4 ± 5.72% |  |  |  | IC50 [1]: 17.9 ± 5.59 µM; SI = IC50 of AChE/ IC50 of BChE [1]: < 0.45; IC50 ([2]; IC50 (µM) BChE): > 40 µM; remaining activity at 10 µM [3]: 74 ± 1.16%; remaining activity at 10 µM [4]: 73.8 ± 8.23%
16 | Pteryxin [PJ2] |  |  |  |  |  | Residual activity at 10 µM (%) AChE ([1]; inhibitor 10 µM, 15 min preincubation): 73.4 ± 11.3%; Residual activity at 10 µM (%) BChE ([2]; inhibitor 10 µM): 87.6 ± 7.14%; Residual activity at 10 µM (%) MAO-A ([3]; inhibitor 10 µM): 85.4 ± 3.80%; Residual activity at 10 µM (%) MAO-B ([4]; inhibitor 10 µM): 79.7 ± 3.47%; IC50 ([6]; converted from μg/mL, from M. purpurea): 33.5 µM; IC50 BChE ([6]; from M. purpurea): 12.96 µg/mL

Row | Compound | IC50 [1, 7] | remaining activity at 10 µM ([1]; 15 min preincubation) | IC50 ([2]; read-out: IC50 (µM) BChE) | remaining activity at 10 µM ([3]; inhibitor 10 µM) | remaining activity at 10 µM ([4]; inhibitor 10 µM) | further results
17 | CCC(C)C(=O)O[C@@H]1c2c(ccc3ccc(=O)oc23)OC(C)(C)[C@@H]1OC(C)=O (stereo partly drawn) [PJ3, hyuganin] | > 40 µM | 97.2 ± 8.3% | > 40 µM | 81.2 ± 3.68% | 83.7 ± 2.33% | 
18 | CC1(C)Oc2cc3oc(=O)ccc3cc2C[C@@H]1O [decursinol] |  |  |  |  |  | IC50 ([5]; from Angelica gigas Nakai): 28 µM
19 | CCC(C)C(=O)c1c(O)c2c(c3c(-c4ccccc4)cc(=O)oc13)OC(C)(CCC=C(C)C)C=C2 (stereo not drawn) [mesuagenin B] |  |  |  |  |  | IC50 ([5]; from Mesua elegans): 0.7 µM
20 | C[C@@H]1O[C@@H](O[C@@H]2[C@@H](O)[C@H](OCCc3ccc(O)c(O)c3)O[C@H](CO)[C@H]2OC(=O)/C=C/c2ccc(O)c(O)c2)[C@H](O)[C@H](O)[C@H]1O [acteoside] |  |  |  |  |  | IC50 [5, 9]: 19.9 µM
21 | CC(=O)O[C@@H]1[C@H](OC(=O)C=C(C)C)c2c(ccc3ccc(=O)oc23)OC1(C)C [PJ1, Isosamidin] | > 40 µM | 92.1 ± 1.7% | > 40 µM | 86 ± 5.47% | 85 ± 0.57% | 
22 | CC(C)=CC(=O)O[C@@H]1c2c(ccc3ccc(=O)oc23)OC(C)(C)[C@@H]1OC(=O)C=C(C)C [PJ4, 3′,4′-disenecioylkhellactone] | 21.3 ± 7.69 µM | 85.4 ± 7.52% | 10.7 µM | 100.3 ± 0.39% | 95.6 ± 4.8% | SI = IC50 of AChE/ IC50 of BChE [1]: 1.99
23 | COc1cc2ccc(=O)oc2cc1O [scopoletin] |  |  |  |  |  | IC50 ([5]; from Vaccinium oldhami Miquel): 52 µM
24 | C/C=C(/C)C(=O)O[C@@H]1c2c(ccc3ccc(=O)oc23)OC(C)(C)[C@@H]1OC(=O)C(C)CC (stereo partly drawn) [PJ12] | 29 ± 1.15 µM | 58.3 ± 5.37% | > 40 µM | 78.9 ± 3.98% | 72.4 ± 3.7% | SI = IC50 of AChE/ IC50 of BChE [1]: < 0.73
25 | COc1cc2oc(-c3ccc(O)cc3)cc(=O)c2c(O)c1[C@@H]1O[C@H](CO)[C@@H](O)[C@H](O)[C@H]1O [swertisin, isovitexin-7-O-methyl ether] |  |  |  |  |  | IC50 ([5]; converted from µg/mL, from Anthocleista vogelii): 71.9 µM; IC50 AChE ([5]; from Anthocleista vogelii): 32.09 µg/mL (≈ 71.9 µM)
26 | CCC(C)C(=O)O[C@@H]1c2c(ccc3ccc(=O)oc23)OC(C)(C)[C@@H]1OC(=O)C=C(C)C (stereo partly drawn) [PJ10, 3′-senecioyl-4′-(2-methylbutyryl)khellactone] | > 40 µM | 86.4 ± 5.23% | 10.2 µM | 92.1 ± 5.58% | 70.9 ± 2.61% | SI = IC50 of AChE/ IC50 of BChE [1]: > 3.92
27 | C/C=C(/C)C(=O)O[C@H]1[C@H](O)c2cc3ccc(=O)oc3cc2OC1(C)C [4′-hydroxy Pd–C-III] |  |  |  |  |  | IC50 ([5]; from Angelica decursiva): 1.09 µM; IC50 ([6]; from A. decursiva): 5.78 µM
28 | O=c1ccc2cc(O)c(O)cc2o1 [esculetin] |  |  |  |  |  | IC50 ([5]; from Artemisia capillaris): 6.13 µM; IC50 [6]: 9.29 µM
29 | O=c1ccc2ccc(O)c(O)c2o1 [daphnetin] |  |  |  |  |  | IC50 ([5]; from Artemisia capillaris): 11.6 µM; IC50 [6]: 8.66 µM
30 | COC(C)(C)[C@H](O)CCC(C)=CCOc1c2ccoc2cc2oc(=O)ccc12 [(R)-( +)-6′-hydroxy-7′-methoxybergamottin] |  |  |  |  |  | IC50 ([5]; from Citrus hystrix): 11.2 µM
31 | CC(C)CC(=O)O[C@@H]1c2c(ccc3ccc(=O)oc23)OC(C)(C)[C@@H]1OC(=O)CC(C)C [PJ14, 3′,4′-diisovalerylkhellactone] | 28.1 ± 0.33 µM | 51.5 ± 4.5% | > 40 µM | 77 ± 5.4% | 66.1 ± 5.23% | SI = IC50 of AChE/ IC50 of BChE [1]: < 0.70
